Results as given in EP1171102B1, “ANHYDROUS TABLET OF RANITIDINE HYDROCHLORIDE WITH DOUBLE-LAYER COATING AND ITS COMPOSITION” (priority 1999, dated 2000).
Where a name gives a salt, the structure may show the parent alone.

Columns and labels:
[1] = Hygroscopicity and conversion of the crystalline forms on storage; format: physicochemical; conditions: product made by the method of the invention; chemico-physical analysis
[2] = cited from earlier work; for hygroscopicity: comparison of Form 1 and Form 2, hydrochloride
[3] = cited from earlier work

CNC(=C[N+](=O)[O-])NCCSCc1ccc(CN(C)C)o1.Cl [anhydrous ranitidine hydrochloride]
conversion into the allomorphous Form 2 during the storage [1]: not gradually converted during the storage into the allomorphous Form 2

CNC(=C[N+](=O)[O-])NCCSCc1ccc(CN(C)C)o1 [ranitidine hydrochloride Form 1, ranitidine hydrochloride]
hygroscopicity [2]: more hygroscopic than Form 2
conversion into Form 2 ([2]; room temperature, in the presence of moisture): may be converted in small amounts in the presence of moisture into Form 2

CNC(=C[N+](=O)[O-])NCCSCc1ccc(CN(C)C)o1 [ranitidine hydrochloride Form 2, ranitidine hydrochloride]
hygroscopicity [2]: less hygroscopic than Form 1

CNC(=C[N+](=O)[O-])NCCSCc1ccc(CN(C)C)o1 [ranitidine hydrochloride]
water solubility ([3]; both allomorphous forms (Form 1 and Form 2)): 900 mg in 1 ml of water
solubility ([3]; in water, at 25° C): over 900 mg/ml
